Patent publication US11083717B2, “Compositions and methods for drug sensitization of parasites” (The Texas A&M University System, priority 2015, dated 2021)
≈ marks a conversion by molar mass, not a printed value. Where two headings read alike, the source gives them in different places.

Experiments:
[1] = HCLint in vitro intrinsic clearance, human (HLM); assay type: in vitro ADME
Plasma protein binding = assay type: in vitro ADME; settings: mouse, mice, read-out: PPB (converted)
[2] = tested on: Cryptosporidium parvum (CP); experiment: Cell culture model of Cryptosporidium parvum infection in HCT-8 cells, real-time qRT-PCR; assay type: cell-based; settings: Cryptosporidium parvum
Method in brief: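 HCT-8 monolayers were infected with C. parvum Iowa oocysts (1.5×10^4/well) for 3 h, then compounds were added after medium exchange and cells were incubated 41 h more (44 h total, 37 °C). Parasite Cp18S rRNA was measured by one-step SYBR qRT-PCR of lysates, normalized to host Hs18S, and % inhibition at the stated µM was derived from a standard curve.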

human fibroblast = experiment: in vitro; settings: human
S. cerevisiae = experiment: in vitro; settings: Saccharomyces cerevisiae
Kinetic solubility = assay type: physicochemical
[3] = MCLint in vitro intrinsic clearance, mouse (MLM); assay type: in vitro ADME
[4] = target: Human ether-a-go-go-related gene (hERG) (Homo sapiens, UniProt Q12809); experiment: hERG test (potential cardiotoxicity); assay type: biochemical; settings: read-out: hERG (Abbvie)
Chain of Human ether-a-go-go-related gene (hERG) (Q12809 whole entry): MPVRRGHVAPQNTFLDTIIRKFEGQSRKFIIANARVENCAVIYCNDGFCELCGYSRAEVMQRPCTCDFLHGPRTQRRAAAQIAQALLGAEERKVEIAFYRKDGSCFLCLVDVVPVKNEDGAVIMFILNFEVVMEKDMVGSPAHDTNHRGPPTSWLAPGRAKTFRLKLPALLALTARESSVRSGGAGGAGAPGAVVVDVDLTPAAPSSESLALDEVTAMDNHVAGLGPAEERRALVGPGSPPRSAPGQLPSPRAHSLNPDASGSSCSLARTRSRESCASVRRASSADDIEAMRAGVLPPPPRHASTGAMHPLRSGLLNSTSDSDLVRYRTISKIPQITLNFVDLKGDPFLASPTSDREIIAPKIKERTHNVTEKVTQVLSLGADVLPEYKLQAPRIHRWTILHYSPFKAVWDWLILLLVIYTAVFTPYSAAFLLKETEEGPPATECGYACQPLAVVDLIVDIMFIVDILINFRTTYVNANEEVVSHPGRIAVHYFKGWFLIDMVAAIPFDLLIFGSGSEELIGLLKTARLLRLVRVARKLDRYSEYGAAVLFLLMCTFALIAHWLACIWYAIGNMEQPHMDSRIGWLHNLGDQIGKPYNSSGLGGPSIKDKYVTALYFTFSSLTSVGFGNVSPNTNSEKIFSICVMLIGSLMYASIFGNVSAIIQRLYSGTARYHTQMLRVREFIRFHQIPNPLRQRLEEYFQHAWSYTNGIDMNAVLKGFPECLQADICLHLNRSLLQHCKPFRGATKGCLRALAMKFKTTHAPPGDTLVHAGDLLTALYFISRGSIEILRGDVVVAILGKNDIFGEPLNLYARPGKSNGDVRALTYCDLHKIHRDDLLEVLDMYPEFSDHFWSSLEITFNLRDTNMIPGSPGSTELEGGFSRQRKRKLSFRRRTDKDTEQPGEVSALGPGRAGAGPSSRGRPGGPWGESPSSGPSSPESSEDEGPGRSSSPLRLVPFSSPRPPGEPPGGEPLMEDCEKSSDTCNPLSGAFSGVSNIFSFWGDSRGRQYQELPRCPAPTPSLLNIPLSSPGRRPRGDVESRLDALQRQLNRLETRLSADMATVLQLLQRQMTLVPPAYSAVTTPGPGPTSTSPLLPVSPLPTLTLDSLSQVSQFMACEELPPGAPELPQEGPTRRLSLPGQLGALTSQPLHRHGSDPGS

Cryptosporidium parvum = settings: for Mouse Model (Mead) DPI7: @50 mg/kg, day 7 post infection
Protocol: The anticryptosporidial activity of the in vitro inhibitors was assessed in the IL-12 knockout mouse model that resembles the acute human disease (Ehigiator H N, Romagnoli P, Borgelt K, Fernandez M, McNair N, Secor W E, Mead J R. 2005. Mucosal cytokine and antigen-specific responses to Cryptosporidium parvum in IL-12p40 KO mice. Parasite Immunol. 27: 17-28; Campbell L D, Stewart J N, Mead J R. 2002. Susceptibility to Cryptosporidium parvum infections in cytokine- and chemokine-receptor knockout mice. J. Parasitol. 88:1014-1016). The protocol was approved by the Institutional Animal Care and Use Committees of Emory University, the AtlantaVAMedical Center, and Brandeis University. Mice (6 to 10 per group) were inoculated with 1,000 purified CP oocysts (Iowa isolate, from cattle). Treatment by gavage began 4 h postinfection with either vehicle (5% dimethyl sulfoxide (DMSO) in canola oil), 50-100 mg/kg compound, or 2,000 mg/kg paromomycin. Compounds were given for 7 days, and mice were sacrificed on day 8 (peak infection). Parasite load was quantified by fluorescence-activated cell sorting (FACS) assays for the presence of the oocysts in the feces at days 0, 4, and 7. Fecal pellets from individual mice were routinely collected daily and homogenized in adjusted volumes of 2.5% potassium dichromate. Samples were processed individually. Aliquots (200 ul) of vortexed samples were processed over microscale sucrose gradients as previously described (Arrowood M J, Hurd M R, Mead J R. 1995. A new method for evaluating experimental cryptosporidial parasite loads using immunofluorescent flowcytometry. J. Parasitol. 81:404-409). The oocyst-containing fraction was collected, washed, and treated with monoclonal antibody (OW5O-FITC) for 20 min. Samples were adjusted to 600 ul, and a portion (100 ul) was assayed with a 102-s sampling interval using logical gating of forward/side scatter and OW5O-FITC fluorescence signal on a Becton, Dickinson FACScan flow cytometer. Flow cytometry data were evaluated by analysis of variance (KaleidaGraph (Synergy Software, Reading Pa.); Microsoft Excel (Microsoft Corporation, Redmond, Wash.)).
NZ-366 (50 mg/kg) and NZ-369 (100 mg/kg) were administered via gavage in a single daily dose to IL-12 knockout mice that were infected with 1,000 CP oocysts. Additional control groups included those treated with single daily doses of vehicle, and paromomycin (Prm) (2,000 mg/kg), by oral gavage.

hERG = hERG (Homo sapiens, UniProt Q12809); experiment: hERG test (potential cardiotoxicity); assay type: biochemical; settings: human; read-out: hERG (Abbvie)
Chain of hERG (Q12809 whole entry): as above

[5] = 44 h, CP in HCT-8 cells, 44 h infection, 50% reduction of parasite growth vs control, NA: not active, read-out: MIC50
[6] = NZ-366 50 mg/kg, NZ-369 100 mg/kg, paromomycin 2,000 mg/kg

SMILES	HCLint (mL/min/g liver), HLM [1]	fraction unbound (Plasma protein binding)	MIC50 [2, 5]	MIC50 ([2]; read-out: MIC50 (nM) (CP))	concentrations at which not toxic, human fibroblast cytotoxicity testing (human fibroblast)	concentrations at which not toxic, S. cerevisiae cytotoxicity testing (S. cerevisiae)	IC50 (in vitro; Saccharomyces cerevisiae)	IC50 (in vitro; human)	Kinetic Sol. (Kinetic solubility)	MCLint (mL/min/g liver), MLM [3]	IC50 [4]	Mouse Model (Mead) DPI7 (Cryptosporidium parvum)	overt toxicity in the treated infected mice (Cryptosporidium parvum; NZ-366 50 mg/kg, NZ-369 100 mg/kg, 7 days)	anticryptosporidial activity, fecal oocysts day 7 post infection (Cryptosporidium parvum; NZ-366 50 mg/kg, NZ-369 100 mg/kg, gavage, single daily dose, FIG. 1)	effectiveness compared with paromomycin after a single dose (Cryptosporidium parvum; [6])	effectiveness compared with paromomycin over the course of the study (Cryptosporidium parvum; [6])	IC50 (hERG)	effectiveness in the same type of test (IL-12 knockout mouse model) (Cryptosporidium parvum; mouse, in vivo)
CC(C)NC(=O)C(C)c1ccc(Oc2nc3ccc(Cl)cc3s2)cc1 (stereo not drawn) [NZ-327, 2-{4-[(6-chloro-1,3-benzothiazol-2-yl)oxy]phenyl}-N-(propan-2-yl)propanamide]	HLM = 1.3 mL/min/g liver	0.016	7 to 22 nM (≈ 0.00262 to 0.00825 µg/mL)	7 to 22 nM (≈ 0.00262 to 0.00825 µg/mL)	≥ 100 µM	≥ 100 µM	> 100 µM	> 100 µM	33 µM	MLM = 3.7 mL/min/g liver								
CC(C(=O)N1CCOCC1)c1ccc(Oc2nc3ccc(Cl)cc3s2)cc1 (stereo not drawn) [NZ-365, 2-{4-[(6-chloro-1,3-benzothiazol-2-yl)oxy]phenyl}-1-(morpholin-4-yl)propan-1-one]	HLM = 4.8 mL/min/g liver		25 nM (≈ 0.0101 µg/mL)	25 nM (≈ 0.0101 µg/mL)	≥ 100 µM	50 to 100 µM	> 100 µM	> 100 µM	28 µM	MLM = 10 mL/min/g liver	12 µM							
CC(C(=O)N1CCN(C)CC1)c1ccc(Oc2nc3ccc(Cl)cc3s2)cc1 (stereo not drawn) [NZ-366, 2-{4-[(6-chloro-1,3-benzothiazol-2-yl)oxy]phenyl}-1-(4-methylpiperazin-1-yl)propan-1-one]	HLM = 7.9 mL/min/g liver	0.019	50 nM (≈ 0.0208 µg/mL)	50 nM (≈ 0.0208 µg/mL)	25 to 50 µM	25 to 50 µM	80 µM	48 µM	62 µM	MLM = 41 mL/min/g liver	2.4 µM	DPI7 = 59%	no overt toxicity	have anticryptosporidial activity	more effective than paromomycin	equally as effective as paromomycin		
CC(C(=O)NCCO)c1ccc(Oc2nc3ccc(Cl)cc3s2)cc1 (stereo not drawn) [NZ-370, 2-{4-[(6-chloro-1,3-benzothiazol-2-yl)oxy]phenyl}-N-(2-hydroxyethyl)propanamide]			50 to 60 nM (≈ 0.0188 to 0.0226 µg/mL)	50 to 60 nM (≈ 0.0188 to 0.0226 µg/mL)	≥ 100 µM	≥ 100 µM	> 100 µM	> 100 µM	40 µM								30 µM	
CC(C(=O)NCCN(C)C)c1ccc(Oc2nc3ccc(Cl)cc3s2)cc1 (stereo not drawn) [NZ-516, 2-{4-[(6-chloro-1,3-benzothiazol-2-yl)oxy]phenyl}-N-[2-(dimethylamino)ethyl]propanamide]	HLM = 0.54 mL/min/g liver		16 nM (≈ 0.00646 µg/mL)	16 nM (≈ 0.00646 µg/mL)	≥ 100 µM	≥ 100 µM	> 100 µM	5.6 µM	100 µM	MLM = 4.1 mL/min/g liver	2.7 µM	DPI7 = 94%						effective
CC(C(=O)NC1CCC1)c1ccc(Oc2nc3ccc(Cl)cc3s2)cc1 (stereo not drawn) [NZ-539, 2-{4-[(6-chloro-1,3-benzothiazol-2-yl)oxy]phenyl}-N-cyclobutylpropanamide]	HLM = 1.8 mL/min/g liver		57 nM (≈ 0.0221 µg/mL)	57 nM (≈ 0.0221 µg/mL)			> 100 µM	> 100 µM		MLM = 4.4 mL/min/g liver	> 30 µM							
COCCNC(=O)C(C)c1ccc(Oc2nc3ccc(Cl)cc3s2)cc1 (stereo not drawn) [NZ-541, 2-{4-[(6-chloro-1,3-benzothiazol-2-yl)oxy]phenyl]-N-(2-methoxyethyl)propanamide]	HLM = 2.0 mL/min/g liver		81 nM (≈ 0.0317 µg/mL)	81 nM (≈ 0.0317 µg/mL)			> 100 µM	> 100 µM		MLM = 6.3 mL/min/g liver	27 µM							
CC(C(=O)NC1COC1)c1ccc(Oc2nc3ccc(Cl)cc3s2)cc1 (stereo not drawn) [NZ-543, 2-{4-[(6-chloro-1,3-benzothiazol-2-yl)oxy]phenyl}-N-(oxetan-3-yl)propanamide]	HLM = 1.2 mL/min/g liver		45 nM (≈ 0.0175 µg/mL)	45 nM (≈ 0.0175 µg/mL)			> 100 µM	> 100 µM		MLM = 2 mL/min/g liver	24 µM							
CC(C(=O)NC1CCOC1)c1ccc(Oc2nc3ccc(Cl)cc3s2)cc1 (stereo not drawn) [NZ-544, 2-{4-[(6-chloro-1,3-benzothiazol-2-yl)oxy]phenyl}-N-(oxolan-3-yl)propanamide]	HLM = 2.6 mL/min/g liver		72 nM (≈ 0.029 µg/mL)	72 nM (≈ 0.029 µg/mL)			> 100 µM	> 100 µM		MLM = 3.3 mL/min/g liver	11 µM							
CC(C(=O)N1CCS(=O)(=O)CC1)c1ccc(Oc2nc3ccc(Cl)cc3s2)cc1 (stereo not drawn) [NZ-553, 4-(2-{4-[(6-chloro-1,3-benzothiazol-2-yl)oxy]phenyl}propanoyl)-1λ^6,4-thiomorpholine-1,1-dione]	HLM = 0.87 mL/min/g liver	0.01	2 nM (≈ 0.000902 µg/mL)	2 nM (≈ 0.000902 µg/mL)			> 100 µM	40 µM	100 µM	MLM = 1.28 mL/min/g liver	11 µM							
